# Laboratory results taken from the supplement of paper PMC10307832.
# Assays:
# Experiment in all cases: relative viability (nuclei count vs DMSO), 5 days (fraction); higher = more cells survive
# [1] = compound: O[C@@H](COc1cccc2ncccc12)CN1CCN([C@@H]2c3ccccc3[C@@H]3[C@H](c4ccccc42)C3(F)F)CC1 [Zosuquidar] + O=C(CCCCCCC(=O)Nc1ccccc1)NO [Vorinostat] (partner 1 µM)
# Outline: (§1)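 Relative viability divides the nuclei count in treated wells by that in vehicle wells. Lung cancer cell lines were seeded in 1536-well plates, dosed by pin tool the next day, and fixed and stained after 5 days in one step with final 0.05% Triton X-100, 1% formaldehyde and 1 ug/ml Hoechst. Dosing was a single drug or a fixed anchor-drug dose plus five library-drug doses (not always all listed) in √10 steps, and values are medians of duplicate plates imaged at 4×.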
# [2] = compound: COc1cc2nccc(Oc3ccc(NC(=O)C4(C(=O)Nc5ccc(F)cc5)CC4)cc3)c2cc1OC [Cabozantinib] + Cc1nc(Nc2ncc(C(=O)Nc3c(C)cccc3Cl)s2)cc(N2CCN(CCO)CC2)n1 [Dasatinib] (partner 0.075 µM)
# Outline: as §1
# [3] = compound: O[C@@H](COc1cccc2ncccc12)CN1CCN([C@@H]2c3ccccc3[C@@H]3[C@H](c4ccccc42)C3(F)F)CC1 [Zosuquidar] + CC(=O)Nc1cccc(-n2c(=O)n(C3CC3)c(=O)c3c(Nc4ccc(I)cc4F)n(C)c(=O)c(C)c32)c1 [Trametinib] (partner 0.02 µM)
# Outline: as §1
# [4] = compound: O[C@@H](COc1cccc2ncccc12)CN1CCN([C@@H]2c3ccccc3[C@@H]3[C@H](c4ccccc42)C3(F)F)CC1 [Zosuquidar] + Cc1cc(Nc2cc(N3CCN(C)CC3)nc(Sc3ccc(NC(=O)C4CC4)cc3)n2)n[nH]1 [Tozasertib] (partner 0.1 µM)
# Outline: as §1
cell line,measurement,setting,value
UMC-11,relative viability,[1]; first compound 0.01 µM,0.381
same,relative viability,[1]; first compound 0.03162 µM,0.483
same,relative viability,[1]; first compound 0.1 µM,0.505
same,relative viability,[1]; first compound 0.3162 µM,0.432
same,relative viability,[1]; first compound 1 µM,0.387
same,relative viability,[2]; first compound 0.02 µM,0.494
same,relative viability,[2]; first compound 0.06325 µM,0.492
same,relative viability,[2]; first compound 0.2 µM,0.453
same,relative viability,[2]; first compound 0.6325 µM,0.493
same,relative viability,[2]; first compound 2 µM,0.452
same,relative viability,[3]; first compound 0.01 µM,0.668
same,relative viability,[3]; first compound 0.03162 µM,0.758
same,relative viability,[3]; first compound 0.1 µM,0.623
same,relative viability,[3]; first compound 0.3162 µM,0.833
same,relative viability,[3]; first compound 1 µM,0.606
same,relative viability,[4]; first compound 0.01 µM,0.207
same,relative viability,[4]; first compound 0.03162 µM,0.194
same,relative viability,[4]; first compound 0.1 µM,0.201
same,relative viability,[4]; first compound 0.3162 µM,0.208
same,relative viability,[4]; first compound 1 µM,0.194
